For this assay, the target named is T1, JAK2 (JH1domain-catalytic, Y1007F,Y1008F) kinase (Homo sapiens, UniProt O60674, Y1007F/Y1008F).
T1 construct: JAK2 (JH1domain-catalytic, Y1007F,Y1008F) kinase was expressed as N-terminal fusion; made in house; host or cells: transiently transfected HEK293 cells
In words: JAK2 JH1 Domain Binding Assay. The following applies: qPCR readout. In general terms: Quantitative PCR measures a nucleic acid by following its amplification.

T1 sequence (O60674 849-1124 Y1007F/Y1008F limits assumed): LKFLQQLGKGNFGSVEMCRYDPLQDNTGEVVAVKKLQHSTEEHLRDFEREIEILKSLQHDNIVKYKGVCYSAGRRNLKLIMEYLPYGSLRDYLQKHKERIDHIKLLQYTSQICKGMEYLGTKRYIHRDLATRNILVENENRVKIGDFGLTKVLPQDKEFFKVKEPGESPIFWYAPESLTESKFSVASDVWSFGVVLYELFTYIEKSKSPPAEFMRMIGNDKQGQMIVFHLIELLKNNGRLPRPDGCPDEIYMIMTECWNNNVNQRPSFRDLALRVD

As a reminder, the Kd is the concentration at which binding is half-saturated. Lower therefore signals higher affinity. With `CN1CC[C@H](n2nc(Nc3nc4ncc(Oc5cnc6scnc6c5)c(C(F)F)c4n3C)cc2C(C)(C)C)C1` [Example I-39, (S)—N-(5-(tert-butyl)-1-(1-methylpyrrolidin-3-yl)-1H-pyrazol-3-yl)-7-(difluoromethyl)-1-methyl-6-(thiazolo[5,4-b]pyridin-6-yloxy)-1H-imidazo[4,5-b]pyridin-2-amine], the Kd is 10 to 50 nM.

Take `CNc1nccn2ncc(Oc3cnc4nc(Nc5cc(CN6CCC6)cc(C(F)(F)F)c5)n(C)c4c3Cl)c12` [Example I-263, N-(3-(azetidin-1-ylmethyl)-5-(trifluoromethyl)phenyl)-7-chloro-1-methyl-6-((4-(methylamino)pyrazolo[1,5-a]pyrazin-3-yl)oxy)-1H-imidazo[4,5-b]pyridin-2-amine]: the Kd is less than 10 nM. To `Cn1c(Nc2cc(C3CC3)cn([C@@H]3CC[C@H]3O)c2=O)nc2ncc(Oc3cnn4ccncc34)c(Cl)c21` (single isomer, unassigned) [Example I-95-b] belongs less than 10 nM. To `Cn1c(Nc2ccc(CN3CCN(CC(F)F)CC3)c(C(F)(F)F)c2)nc2ncc(Oc3cnn4ccncc34)c(Cl)c21` [Example I-208, 7-chloro-N-(4-((4-(2,2-difluoroethyl)piperazin-1-yl)methyl)-3-(trifluoromethyl)phenyl)-1-methyl-6-(pyrazolo[1,5-a]pyrazin-3-yloxy)-1H-imidazo[4,5-b]pyridin-2-amine] belongs 50 to 1000 nM; to `CN1CCN(CCn2cc(C3CC3)cc(Nc3nc4ncc(Oc5cnn6ccccc56)c(Cl)c4n3C)c2=O)CC1` [Example I-102, 3-((7-chloro-1-methyl-6-(pyrazolo[1,5-a]pyridin-3-yloxy)-1H-imidazo[4,5-b]pyridin-2-yl)amino)-5-cyclopropyl-1-(2-(4-methylpiperazin-1-yl)ethyl)pyridin-2(1H)-one], less than 10 nM; to `Cn1c(Nc2cc(C(C)(C)C)n([C@H]3COC[C@@H]3O)n2)nc2ncc(Oc3cnc4cnc(C5CC5)n4c3)c(Cl)c21` (single isomer, unassigned) [Example I-76-a], 10 to 50 nM. The result for `CNc1nccn2ncc(Oc3cnc4nc(Nc5cc(C6CC6)nn(C)c5=O)n(C)c4c3Cl)c12` [Example I-199, 4-((7-chloro-1-methyl-6-((4-(methylamino)pyrazolo[1,5-a]pyrazin-3-yl)oxy)-1H-imidazo[4,5-b]pyridin-2-yl)amino)-6-cyclopropyl-2-methylpyridazin-3(2H)-one] reads less than 10 nM; that for `Cn1c(Nc2cc(C3CC3)cn(C3CCOCC3)c2=O)nc2ncc(Oc3cnn4ccncc34)c(Cl)c21` [Example I-68, 3-((7-chloro-1-methyl-6-(pyrazolo[1,5-a]pyrazin-3-yloxy)-1H-imidazo[4,5-b]pyridin-2-yl)amino)-5-cyclopropyl-1-(tetrahydro-2H-pyran-4-yl)pyridin-2(1H)-one], less than 10 nM; that for `CN1CC[C@H](n2nc(Nc3nc4ncc(Oc5cnc6scnc6c5)c(Cl)c4n3C)cc2C(C)(C)C)C1` [Example I-28, (S)—N-(5-(tert-butyl)-1-(1-methylpyrrolidin-3-yl)-1H-pyrazol-3-yl)-7-chloro-1-methyl-6-(thiazolo[5,4-b]pyridin-6-yloxy)-1H-imidazo[4,5-b]pyridin-2-amine], 10 to 50 nM. In the case of `CNc1cc(F)c2c(Oc3cnc4nc(Nc5cc(C(F)(F)F)cn(C)c5=O)n(C)c4c3Cl)cnn2c1` [Example I-354, 3-((7-chloro-6-((4-fluoro-6-(methylamino)pyrazolo[1,5-a]pyridin-3-yl)oxy)-1-methyl-1H-imidazo[4,5-b]pyridin-2-yl)amino)-1-methyl-5-(trifluoromethyl)pyridin-2(1H)-one], the Kd was less than 10 nM. The result for `Cn1c(Nc2cc(C(C)(C)C)n([C@H]3CCN(CCF)C3)n2)nc2ncc(Oc3cnn4ccncc34)c(C(F)F)c21` [Example I-43, (S)—N-(5-(tert-butyl)-1-(1-(2-fluoroethyl)pyrrolidin-3-yl)-1H-pyrazol-3-yl)-7-(difluoromethyl)-1-methyl-6-(pyrazolo[1,5-a]pyrazin-3-yloxy)-1H-imidazo[4,5-b]pyridin-2-amine] reads 10 to 50 nM; that for `CN1CCC[C@H]1COc1cc(Nc2nc3ncc(Oc4cnn5ccncc45)c(Cl)c3n2C)cc(C(F)(F)F)c1` [Example I-243, (S)-7-chloro-1-methyl-N-(3-((1-methylpyrrolidin-2-yl)methoxy)-5-(trifluoromethyl)phenyl)-6-(pyrazolo[1,5-a]pyrazin-3-yloxy)-1H-imidazo[4,5-b]pyridin-2-amine], less than 10 nM; that for `Cn1c(Nc2cc(C3CC3)cn([C@H]3C[C@H](O)C3)c2=O)nc2ncc(Oc3cnn4cc(F)ccc34)c(Cl)c21` [Example I-152, trans-3-((7-chloro-6-((6-fluoropyrazolo[1,5-a]pyridin-3-yl)oxy)-1-methyl-1H-imidazo[4,5-b]pyridin-2-yl)amino)-5-cyclopropyl-1-(3-hydroxycyclobutyl)pyridin-2(1H)-one], less than 10 nM. Turning to `CNc1nccn2ncc(Oc3cnc4nc(Nc5cc(C6CCCN6C)cc(C(F)(F)F)c5)n(C)c4c3Cl)c12` (single isomer, unassigned) [Example I-269-b], the Kd is 10 to 50 nM. Regarding `CN1C[C@@H](F)[C@H](n2nc(Nc3nc4ncc(Oc5cnn6ccncc56)c(Cl)c4n3C)cc2C(C)(C)C)C1` (single isomer, unassigned) [Example I-267-a], the Kd lay in the range of 10 to 50 nM. To `Cn1c(Nc2cc(C(C)(C)C)n([C@H]3CCOC3)n2)nc2ncc(Oc3cnc4[nH]c(C5CC5)cc4c3)cc21` [Example I-2, (S)—N-(5-(tert-butyl)-1-(tetrahydrofuran-3-yl)-1H-pyrazol-3-yl)-6-((2-cyclopropyl-1H-pyrrolo[2,3-b]pyridin-5-yl)oxy)-1-methyl-1H-imidazo[4,5-b]pyridin-2-amine] belongs 10 to 50 nM; to `Cn1c(Nc2cc(C(F)(F)F)cn([C@@H]3CC[C@@H]3O)c2=O)nc2ncc(Oc3cnn4ccncc34)c(Cl)c21` (single isomer, unassigned) [Example I-119-a], less than 10 nM; to `CN1CCC[C@@H]1COc1cc(Nc2nc3ncc(Oc4cnn5ccncc45)c(Cl)c3n2C)cc(C(F)(F)F)c1` [Example I-244, (R)-7-chloro-1-methyl-N-(3-((1-methylpyrrolidin-2-yl)methoxy)-5-(trifluoromethyl)phenyl)-6-(pyrazolo[1,5-a]pyrazin-3-yloxy)-1H-imidazo[4,5-b]pyridin-2-amine], less than 10 nM.

Take `Cn1c(Nc2cc(C(C)(C)C)n([C@H]3CCC[C@H]3O)n2)nc2ncc(Oc3cnn4ccncc34)c(Cl)c21` (single isomer, unassigned) [Example I-60-a]: the Kd lay in the range of 10 to 50 nM.

In turn, `COc1c(Oc2cnn3ccncc23)cnc2nc(Nc3cc(C4CC4)cn([C@@H](C)CC#N)c3=O)n(C)c12` (single isomer, unassigned) [Example I-121-a] displayed a Kd of less than 10 nM. To `Cn1cc(C2CC2)cc(Nc2nc3ncc(Oc4cnn5ccncc45)c(Cl)c3n2C)c1=O` [Example I-57, 3-((7-chloro-1-methyl-6-(pyrazolo[1,5-a]pyrazin-3-yloxy)-1H-imidazo[4,5-b]pyridin-2-yl)amino)-5-cyclopropyl-1-methylpyridin-2(1H)-one] belongs less than 10 nM.

These data come from patent publication US12043632B2, “6-heteroaryloxy benzimidazoles and azabenzimidazoles as JAK2 inhibitors” (Ajax Therapeutics, Inc., priority 2020, dated 2024).
